In patent US9114149B2, “[CU(thp)4]n[X]-n compounds for the treatment of a broad range of human solid tumors, including refractory tumors” (Universita Degli Studi Di Padova, priority 2011, dated 2015):
Where “and” joins values, the source holds several entries; their conditions need not be identical. Equal values may be shown once.

What was measured:
H157 = experiment: MTT cytotoxicity, H157 (lung); type: cell-based, human; details: MTT test, 72 hrs
Source text: (§1) The in vitro antitumor activity of CP had been deeply evaluated in several human cancer cell lines by in vitro cytotoxicity assays. CP cytotoxicity has been detected in a large panel of human cell lines derived from a wide variety of solid tumors, including refractory tumors. In Table 1, the cytotoxicity parameters IC50 (that is the median growth inhibitory concentrations calculated from dose-survival curves via MTT test) are tabulated.
(§2) Cell lines representative of lung (H157, U1810, U1285, Calu-1), pancreas (MIA PaCa-2, BxPC-3, AsPC-1, Capan-1), liver (Huh-7, Hep 3B, SK-Hep-1), oesophagus (OE33, OE21), oesophagus/gastric cardia (OE19), stomach (BGC-823, AGS), colon (HCT-116, T84, COLO 205), breast (MDA-MB-231, SK-BR-3), cervix (CaSki, C-33 A) ovarian (A2780, SK-OV-3, IGROV1), prostate (LnCaP, PC-3) cancers along with melanoma (MEWO, G361, C-32), neuroblastoma (SH-SY5Y, SK-N-AS, IMR-32) and osteosarcoma (U-2 OS, MG-63) have been treated with increasing concentration of CP for 72 hrs.

U1285 = experiment: MTT cytotoxicity, U1285 (lung); type: cell-based, human; details: MTT test, 72 hrs
Source text: as §1, §2

AsPC-1 = experiment: MTT cytotoxicity, AsPC-1 (pancreas); type: cell-based, human; details: MTT test, 72 hrs
Source text: as §1, §2

Capan-1 = experiment: MTT cytotoxicity, Capan-1 (pancreas); type: cell-based, human; details: MTT test, 72 hrs
Source text: as §1, §2

Hep 3B = experiment: MTT cytotoxicity, Hep 3B (liver); type: cell-based, human; details: MTT test, 72 hrs
Source text: as §1, §2

SK-Hep-1 = experiment: MTT cytotoxicity, SK-Hep-1 (liver); type: cell-based, human; details: MTT test, 72 hrs
Source text: as §1, §2

OE33 = experiment: MTT cytotoxicity, OE33 (oesophagus); type: cell-based, human; details: MTT test, 72 hrs
Source text: as §1, §2

OE21 = experiment: MTT cytotoxicity, OE21 (oesophagus); type: cell-based, human; details: MTT test, 72 hrs
Source text: as §1, §2

HCT-116 = experiment: MTT cytotoxicity, HCT-116 (colon); type: cell-based, human; details: MTT test, 72 hrs
Source text: as §1, §2

T84 = experiment: MTT cytotoxicity, T84 (colon); type: cell-based, human; details: MTT test, 72 hrs
Source text: as §1, §2

IMR-32 = experiment: MTT cytotoxicity, IMR-32 (brain); type: cell-based, human; details: MTT test, 72 hrs
MEWO = experiment: MTT cytotoxicity, MEWO (skin); type: cell-based, human; details: MTT test, 72 hrs
Source text: as §1, §2

G361 = experiment: MTT cytotoxicity, G361 (skin); type: cell-based, human; details: MTT test, 72 hrs
Source text: as §1, §2

C-32 = experiment: MTT cytotoxicity, C-32 (skin); type: cell-based, human; details: MTT test, 72 hrs
Source text: as §1, §2

U-2 OS = experiment: MTT cytotoxicity, U-2 OS (bone); type: cell-based, human; details: MTT test, 72 hrs
Source text: as §1, §2

MG-63 = experiment: MTT cytotoxicity, MG-63 (bone); type: cell-based, human; details: MTT test, 72 hrs
Source text: as §1, §2

MDA-MB-231 = experiment: MTT cytotoxicity, MDA-MB-231 (breast); type: cell-based, human; details: MTT test, 72 hrs
Source text: as §1, §2

SK-BR-3 = experiment: MTT cytotoxicity, SK-BR-3 (breast); type: cell-based, human; details: MTT test, 72 hrs
Source text: as §1, §2

CaSki = experiment: MTT cytotoxicity, CaSki (cervix); type: cell-based, human; details: MTT test, 72 hrs
Source text: as §1, §2

A2780 = experiment: MTT cytotoxicity, A2780 (ovary); type: cell-based, human; details: MTT test, 72 hrs
Source text: as §1, §2

SK-OV-3 = experiment: MTT cytotoxicity, SK-OV-3 (ovary); type: cell-based, human; details: MTT test, 72 hrs
Source text: as §1, §2

IGROV1 = experiment: MTT cytotoxicity, IGROV1 (ovary); type: cell-based, human; details: MTT test, 72 hrs
Source text: as §1, §2

LNCap = experiment: MTT cytotoxicity, LNCap (prostate); type: cell-based, human; details: MTT test, 72 hrs
Source text: as §1, §2

[1] = tested on: human ovarian adenocarcinoma cells sensitive (A2780); experiment: Cross resistance MTT test, A2780 (CDDP sensitive); type: cell-based; details: 72 h, probit analysis
[2] = tested on: human ovarian adenocarcinoma cells resistant (A2780cisR) to CDDP; experiment: Cross resistance MTT test, A2780cisR (CDDP resistant); type: cell-based; details: for IC50: A2780cisR (CDDP resistant), MTT test, 72 h, probit analysis; for R.F. (Resistant factor): IC50 resistant/parent line: A2780cisR / A2780
[3] = tested on: human osteosarcoma cells sensitive (U-2 OS); experiment: Cross resistance MTT test, U-2 OS (CDDP sensitive); type: cell-based; details: 72 h, probit analysis
[4] = tested on: human osteosarcoma cells resistant (U-2 OS/Pt) to CDDP; experiment: Cross resistance MTT test, U-2 OS Pt (CDDP resistant); type: cell-based; details: for IC50: U-2 OS Pt (CDDP resistant), MTT test, 72 h, probit analysis
[5] = tested on: human lung (MRC-5) fibroblasts; experiment: Cytotoxicity towards human non-tumor cells, MRC-5; type: cell-based; details: MRC-5 human lung fibroblasts (non-tumor); MTT test, 72 hrs
[6] = tested on: human foreskin (HFFF2) fibroblasts; experiment: Cytotoxicity towards human non-tumor cells, HFFF2; type: cell-based; details: MTT test, 72 hrs
[7] = tested on: Lewis lung carcinoma (LLC); experiment: Advanced-stage treatment (1) of LLC-bearing mice; type: in vivo, C57BL mice; details: for Average tumor weight (mean ± S.D.) / Inhibition of tumor growth: advanced-stage (1); for Average tumor weight (mean ± S.D.): day 15; for Inhibition of tumor growth: day 15, referred to control; for adverse effects / body weight changes during therapy: advanced-stage treatments (1) and (2), FIGS. 2 and 3
Experimental: Body weight was measured at day 1 and every two days from day 7 and was taken as a parameter of systemic toxicity. The X axis indicates the days after transplantation whereas the Y axis indicates the percentage of body weight changes. […] The error bars indicate the SD.
(§3) The in vivo antitumor activity of CP in LLC tumor model has been further investigated by means of other protocols, such as advanced-stage treatment (1), and advanced-stage treatment (2). For upstaged or advanced stage disease, LLC tumors were allowed to establish and grow to visible (advanced-stage treatment 1) and palpable (advanced-stage treatment 2) size before the start of chemotherapy. The results shown in Table 8 and 9, attested that CP was efficacious even at the lowest dose schedules.

[8] = tested on: Lewis lung carcinoma (LLC); experiment: Advanced-stage treatment (2) of LLC-bearing mice; type: in vivo, C57BL mice; details: advanced-stage (2); for Average tumor weight (mean ± S.D.): day 15; for Inhibition of tumor growth: day 15, referred to control
Experimental: Body weight was measured at day 1 and every two days from day 9 and was taken as a parameter of systemic toxicity. The X axis indicates the days after transplantation whereas the Y axis indicates the percentage of body weight changes. […] The error bars indicate the SD.
The complete disappearance of primary tumors in these mice was confirmed by dissection on day 15.
as §3

C57BL mice = experiment: Maximum Tolerated Dose in C57BL mice; details: single ip administration, <20% weight loss and no animal death
[9] = 1.5 mg/kg i.p. daily from day 7
[10] = 50 mg/kg ip days 9-11 then 30 mg/kg days 12-14

N.N.[Cl][Pt][Cl] [CDDP, cis-diamminodichloro platinum(II)]
IC50 (H157): 5990 ± 2710 nM | IC50 (U1285): 4370 ± 1060 nM | IC50 (AsPC-1): 29500 ± 1570 nM | IC50 (Capan-1): 9810 ± 1380 nM | IC50 (Hep 3B): 6150 ± 1480 nM | IC50 (SK-Hep-1): 27100 ± 2940 nM | IC50 (OE33): 6870 ± 1060 nM | IC50 (OE21): 3760 ± 1080 nM | IC50 (HCT-116): 8260 ± 1110 nM | IC50 (T84): 7670 ± 1340 nM | IC50 (IMR-32): 4450 ± 980 nM | IC50 (MEWO): 6760 ± 1470 nM | IC50 (G361): 1320 ± 1010 nM | IC50 (C-32): 1060 ± 980 nM | IC50 (U-2 OS): 5150 ± 1940 nM | IC50 (MG-63): 5760 ± 1010 nM | IC50 (MDA-MB-231): 3230 ± 1560 nM | IC50 (SK-BR-3): 5120 ± 1510 nM | IC50 (CaSki): 31100 ± 2970 nM | IC50 (A2780): 1250 ± 1010 nM | IC50 (SK-OV-3): 3040 ± 950 nM | IC50 (IGROV1): 6010 ± 1730 nM | IC50 (LNCap): 1080 ± 1010 nM | IC50 [1]: 2430 ± 1600 nM | IC50 [2]: 13100 ± 2300 nM | R.F. (Resistant factor) [2]: 5.3 | IC50 [3]: 5900 ± 1400 nM | R.F. (Resistant factor) ([4]; IC50 resistant/parent line: U-2 OS Pt / U-2 OS): 2.5 | IC50 [4]: 14600 ± 1300 nM | IC50 [5]: 19200 ± 1350 nM | IC50 [6]: 20800 ± 2330 nM | Average tumor weight (mean ± S.D.) [7, 9]: 0.061 ± 0.03 g | Inhibition of tumor growth [7, 9]: 87.84% | adverse effects / body weight changes during therapy [7]: substantial weight loss | Average tumor weight (mean ± S.D.) ([8]; 1.5 mg/kg ip daily from day 9): 0.118 ± 0.10 g | Inhibition of tumor growth ([8]; 1.5 mg/kg ip daily from day 9, 1.5 mg/kg): 72% and 72.68% | MTD (Maximum Tolerated Dose) (C57BL mice): 4.8 mg/kg

F[P-](F)(F)(F)(F)F.OC[P+](CO)(CO)[Cu-3]([P+](CO)(CO)CO)([P+](CO)(CO)CO)[P+](CO)(CO)CO [CP, [Cu(thp)4][PF6]]
IC50 (H157): 1510 ± 660 nM | IC50 (U1285): 870 ± 510 nM | IC50 (AsPC-1): 1550 ± 730 nM | IC50 (Capan-1): 2430 ± 840 nM | IC50 (Hep 3B): 670 ± 470 nM | IC50 (SK-Hep-1): 860 ± 750 nM | IC50 (OE33): 1870 ± 590 nM | IC50 (OE21): 1190 ± 720 nM | IC50 (HCT-116): 460 ± 70 nM | IC50 (T84): 240 ± 40 nM | IC50 (IMR-32): 720 ± 180 nM | IC50 (MEWO): 1130 ± 740 nM | IC50 (G361): 980 ± 120 nM | IC50 (C-32): 560 ± 430 nM | IC50 (U-2 OS): 1340 ± 920 nM | IC50 (MG-63): 1430 ± 740 nM | IC50 (MDA-MB-231): 2110 ± 1230 nM | IC50 (SK-BR-3): 1890 ± 990 nM | IC50 (CaSki): 3160 ± 1450 nM | IC50 (A2780): 990 ± 420 nM | IC50 (SK-OV-3): 880 ± 430 nM | IC50 (IGROV1): 910 ± 940 nM | IC50 (LNCap): 650 ± 870 nM | IC50 [1]: 1800 ± 400 nM | IC50 [2]: 2100 ± 1200 nM | R.F. (Resistant factor) [2]: 1.2 | IC50 [3]: 3100 ± 1100 nM | IC50 [4]: 4300 ± 1100 nM | IC50 [5]: 33000 ± 1760 nM | IC50 [6]: 31100 ± 3480 nM | Average tumor weight (mean ± S.D.) ([7]; 30 mg/kg i.p. daily from day 7): 0.088 ± 0.03 g | Inhibition of tumor growth ([7]; 30 mg/kg i.p. daily from day 7): 82.37% | Average tumor weight (mean ± S.D.) ([7]; 50 mg/kg i.p. daily from day 7): 0.071 ± 0.02 g | Inhibition of tumor growth ([7]; 50 mg/kg i.p. daily from day 7): 85.85% | adverse effects / body weight changes during therapy [7]: did not induce any adverse effects | Average tumor weight (mean ± S.D.) [8, 10]: 0.024 ± 0.03 g | Inhibition of tumor growth [8, 10]: 94.44% | tumor regression (in words) ([8]; 50 mg/kg loading then 30 mg/kg maintenance, after the sixth administration): quite complete tumor regression | MTD (Maximum Tolerated Dose) (C57BL mice): 25.6 mg/kg
